According to patent US9809640B2, “ApoE peptide dimers and uses thereof” (priority 2010, dated 2017):
Read-outs that look alike come from different tables or passages of the source. Non-standard residues stand in square brackets, D forms with d. Residues, ends and D or L forms follow the SMILES beside them. No end group written: not given here. Arg(NO2) = N=C(NCCC[C@H](N)C(=O)O)N[N+](=O)[O-]; Aib = CC(C)(N)C(=O)O

What was measured:
normal B-cells = experiment: Cytotoxicity on normal B-cells from volunteers; format: cell-based, human; conditions: normal B-cells from volunteers
B-CLL cells = experiment: Cytotoxicity on patient-derived B-CLL cells (MTS assay); conditions: for Fold Change: CLL EC50 relative to COG056 (rev133) = 1.0
Excerpt: FIG. 5A: Dose response curves for COG449 cytotoxicity on CLL cells from 4 leukemia patients. Human CLL cells were isolated from blood samples and assayed for COG449 cytotoxicity. […] FIG. 5B: Dose response curves for COG445 on CLL cells from 7 patients or normal B-cells from 5 patients. Human CLL cells and PBMC were isolated and assayed for cytotoxicity of COG445.
Blood from CLL patients was collected and CD5+/CD19+ CLL cells were isolated using the RosetteSep™ Human B-Cell Enrichment Cocktail, according to the manufacturer's instructions, and treated with COG compounds. Compounds were applied to B-CLL cells (2.5×10^5 cells/well in a 96 well plate), after which the cells were treated for 72 hours.
Normal B-cells from volunteers and B-CLL cells from patients are isolated using the RosetteSep™ Human B Cell Enrichment Cocktail according to the manufacturer's instructions. This method depletes whole blood of T cells, monocytes, and NK cells using a proprietary antibody cocktail that cross-links unwanted cells in human whole blood to multiple red blood cells (RBCs) forming immunorosettes. This increases the density of the unwanted (rosetted) cells, such that they pellet along with the free RBCs when centrifuged over a buoyant density medium such as Ficoll-Paque®. This leaves the highly enriched B-cell or B-CLL cells at the interface between Ficoll and the plasma. The antibodies in the cocktail contain […] and anti-CD16 antibodies to remove T cells, monocytes, and NK cells, respectively. The purity of these B-cell and B-CLL preparations is then determined by flow cytometry.
For cytotoxicity assays, 3×10^6 CLL cells/well are cultured in 24 well tissue culture plates in 1.5 mL of Hybridoma SFM™ (Gibco, Long Island, N.Y.) as described by Levesque et al. (2001, 2003). All cultures are incubated at 37° C., 5% CO2 in air.

[1] = Pharmacokinetics of subcutaneously injected COG1410; conditions: plasma, sc
Method: Male C57Bl/6 mice (20-24 g, Charles River, Raleigh, N.C.) are injected with a peptide dimer subcutaneously at a volume of 5 mL/kg in the scruff of the neck. Ten minutes before the desired timepoint, mice are anesthetized and at the desired timepoint blood is drawn by cardiac puncture. Blood from at least 4 mice is used for each timepoint with the samples collected at 5, 10, 15, 30, 45, 60, 90, 120, 180 and 240 minutes for the initial analysis. The samples are processed and the pharmacokinetic analysis is completed. […] In the event that the half life has not been reached, a repeat of the experiment is performed that uses one timepoint before the observed Tmax, a timepoint at the observed Tmax and timepoints extending long enough to adequately determine the half life based on extrapolation of the previous observations of clearance from the plasma. Analysis of three concentrations of the peptide dimer is also performed to determine if there is a dose dependent effect on the pharmacokinetic parameters.

[2] = Mouse toxicity, maximum tolerated dose by intravenous injection; conditions: in vivo, maximum dose by intravenous injection without deaths after 24 hrs
Excerpt: (§1) We also evaluated the various peptides for efficacy in suppressing nitric oxide production induced by LPS stimulation of BV2 microglia cells as a measure of anti-inflammatory activity as well as the maximum dose tolerated in mice (Table I and FIG. 6A). For the LPS assay, EC50 is the concentration of compound that caused a 50% suppression of nitric oxide release from BV2 cells following LPS stimulation. For mouse toxicity, MTD is the maximum dose of the compound that can be given by intravenous injection without causing deaths after 24 hrs. […] Coupling the ApoE domain to a protein transduction domain further enhanced the potency of the dimers.

IL-6 = experiment: LPS-induced IL-6 production in BV2 microglia; format: cell-based; conditions: BV2 cells
Method: (§2) FIG. 1. […] Compounds were added to the final concentrations indicated on the graph along with 100 ng/mL of LPS. After 24 hours the media was removed and assayed by two-site ELISA (BioSource) and quantitated relative to a standard curve on the same plate.
(§3) A series of fusion peptides with COG133 conjugated to a PTD were prepared by chemical synthesis.

BV2 microglia cells [3] = experiment: LPS-induced nitric oxide production in BV2 microglia cells; format: cell-based; conditions: for EC50: 50% suppression of nitric oxide release from BV2 cells following LPS stimulation
Method: FIG. 1. COG 112 inhibits LPS-induced production of inflammatory cytokines in BV2 microglia cells. Inhibition curves for COG112 in the production of NO (green squares), TNFα (red diamonds), and IL-6 (blue triangles) by BV2 microglia. Compounds were added to the final concentrations indicated on the graph along with 100 ng/mL of LPS. After 24 hours the media was removed and assayed by two-site ELISA (BioSource) and quantitated relative to a standard curve on the same plate.
FIG. 3. NO Inhibition curve for COG449. BV2 microglia were treated with COG449 at the final concentrations indicated on the graph, along with 100 ng/mL of LPS. After 24 hours the media was removed and assayed by two-site ELISA (BioSource) and quantitated relative to a standard curve on the same plate.
as §1
Low passage BV2 microglial cell cultures are maintained in 10% HI (Heat Inactivated) FBS DMEM media (supplemented with MEM NEAA (Non-Essential Amino Acids), sodium pyruvate and Pen-Strep) and continuously cultured until needed. To determine the IC50 values for NO production, peptides are added to BV2 cultures in 1% HI FBS DMEM media (supplemented with MEM NEAA and sodium pyruvate) at a range of final assay concentrations from 1.0 μM in 2 fold dilutions to 7.8 nM followed immediately by addition of LPS (100 ng/mL final concentration) as previously described (Laskowitz et al. (2001) Exp Neurol, Vol. 167(1): 74-85). After incubating for 18±1 hours, conditioned media is removed for analysis of nitrite (the stable oxidation product of released nitric oxide) by the Griess colorimetric assay (Promega). Remaining cells are assayed for viability in an MTT assay (Promega) and the nitrite assay values are normalized for each concentration using the percent viability of cells in the MTT assay. […] Typically, the absence of LPS exposure to BV2 cells results in levels below the limit of detection in our assays. Similarly, addition of any of the peptides up to 25 μM without LPS results in undetectable NO levels.

TNFα = experiment: LPS-induced TNFα production in BV2 microglia; format: cell-based; conditions: BV2 cells
Method: as §2, §3

BV2 cells = experiment: LD50 of COG112 (safety window versus suppression in BV2 cells); format: cell-based
Method: We have previously shown that the addition of a protein transduction domain (PTD), such as an antennapedia peptide, to the apoE-mimetic COG133 peptide (LRVRLASHLRKLRKRLL (SEQ ID NO: 3)) enhances its anti-inflammatory activity. A series of fusion peptides with COG133 conjugated to a PTD were prepared by chemical synthesis.

[4] = tested on: MDA-MB-231 breast cancer cells; format: cell-based; conditions: 48 hours, MTT
Method: (§4) FIG. 14A: Dose response curve of COG445 on proliferation of U87 (open circles) and MDA-MB-231 (filled circles) cells as measured by MTT reduction. FIG. 14B: Dose response curve of COG445 on proliferation of MDA-MB-231 cells as measured by cell count.
Next, we examined the potency of an ApoE peptide dimer versus the monomeric form on proliferation of the MDA-MB-231 breast cancer cell line. MDA-MB-231 cells were treated with various concentrations of either COG435 (monomer; SEQ ID NO: 90) or COG493 (a BMOE-linked dimer of COG 435) peptides for 48 hours. Following peptide treatment, cells were quantified using a MTT assay.
(§5) Because COG445 inhibited Akt activation and downstream signaling, we examined the effects of COG445 on cellular proliferation. Adherent MB231 and U87 cells were grown for ˜24 hours in the presence of COG445 and cellular proliferation was measured by MTT reduction. […] Furthermore, COG445 inhibited MB231 cellular proliferation as determined by cell count (FIG. 14B). Approximately 6×10^4 cells were plated in growth media (RPMI+10% FBS) for 24-hours with increasing concentrations of COG445. […] However at concentrations ≧1 μM COG445, there appears to be a loss of cells. This is partially explained by decreased proliferation, although it is possible that the rate of cellular degradation was increased in the presence of COG445.

U87MG glioblastoma cells = format: cell-based; conditions: MTT
Method: as §4
To determine whether ApoE peptide dimers were cytotoxic to other types of cancer, we evaluated the effect of three different ApoE BMOE-linked peptide dimers (COG449, COG492, COG493; see Table I) on the growth characteristics of U87MG glioblastoma cells. Various concentrations of COG449, COG492, COG493 or Sorafenib were used to treat U87MG glioblastoma cells and viable cells were quanititated using MTT. Sorafenib, which has previously been reported to be cytotoxic to glioblastoma cells (Yang et al. (2010) Mol Cancer Ther., Vol. 9(4):953-962), was used as a positive control.
as §5

BV2 microglia cells [5] = conditions: previously shown; cited from earlier work
[6] = read-out: CLL EC50, B-CLL cells from patients, 72 hours, MTS assay

CC(=O)N[C@@H](C)C(=O)N[C@@H](CO)C(=O)NC(C)(C)C(=O)N[C@@H](CC(C)C)C(=O)N[C@@H](CCCNC(=N)N)C(=O)N[C@@H](CCCCN)C(=O)N[C@@H](CC(C)C)C(=O)NC(C)(C)C(=O)N[C@@H](CCCCN)C(=O)N[C@@H](CCCNC(=N)N)C(=O)N[C@@H](CC(C)C)C(=O)N[C@@H](CC(C)C)C(N)=O [COG1410, AS(Aib)LRKL(Aib)KRLL (SEQ ID NO: 5)] (Ac-AS[Aib]LRKL[Aib]KRLL-NH2; N-terminus and C-terminus assumed)
EC50 (normal B-cells): > 20 µM
EC50 (B-CLL cells; read-out: EC50 anti-CLL cytotoxic activity, B-CLL cells): 5700 nM
Tmax [1]: 20 to 30 min
half-life [1]: 60 to 90 min
MTD at 24 h [2]: 15 mg/kg

Ac-RQIKIWFQNRRMKWKKCLRVRLASHLRKLRKRLL-NH2 [COG112, RQIKIWFQNRRMKWKK-C-LRVRLASHLRKLRKRLL (SEQ ID NO: 1)]
IC50 (IL-6): 12 nM
EC50 (BV2 microglia cells [3]): < 1000 nM
IC50 (BV2 microglia cells [3]; BV2 cells, LPS 100 ng/mL, read-out: IC50 for NO production/release): 21 nM
EC50 (normal B-cells): > 20 µM
Fold Change (B-CLL cells): 9.2
EC50 (B-CLL cells; [6]): 1400 nM
IC50 (TNFα): 58 nM
MTD at 24 h [2]: 28 mg/kg
LD50 (BV2 cells): 7 µM
safety window, LD50 versus effective suppression concentrations (BV2 cells; versus 12-58 nM): > 120 fold

CC(=O)N[C@@H](Cc1c[nH]c2ccccc12)C(=O)N[C@@H](CCCCN)C(=O)N[C@@H](CCCCN)C(=O)N[C@@H](CSC1CC(=O)N(CCN2C(=O)CC(SC[C@H](NC(=O)[C@H](CCCCN)NC(=O)[C@H](CCCCN)NC(=O)[C@H](Cc3c[nH]c4ccccc34)NC(C)=O)C(=O)N[C@@H](CC(C)C)C(=O)N[C@@H](CCCNC(=N)N)C(=O)N[C@H](C(=O)N[C@@H](CCCNC(=N)N)C(=O)N[C@@H](CC(C)C)C(=O)N[C@@H](C)C(=O)N[C@@H](CO)C(=O)N[C@@H](Cc3c[nH]cn3)C(=O)N[C@@H](CC(C)C)C(=O)N[C@@H](CCCNC(=N)N)C(=O)N[C@@H](CCCCN)C(=O)N[C@@H](CC(C)C)C(=O)N[C@@H](CCCNC(=N)N)C(=O)N[C@@H](CCCCN)C(=O)N[C@@H](CCCNC(=N)N)C(=O)N[C@@H](CC(C)C)C(=O)N[C@@H](CC(C)C)C(N)=O)C(C)C)C2=O)C1=O)C(=O)N[C@@H](CC(C)C)C(=O)N[C@@H](CCCNC(=N)N)C(=O)N[C@H](C(=O)N[C@@H](CCCNC(=N)N)C(=O)N[C@@H](CC(C)C)C(=O)N[C@@H](C)C(=O)N[C@@H](CO)C(=O)N[C@@H](Cc1c[nH]cn1)C(=O)N[C@@H](CC(C)C)C(=O)N[C@@H](CCCNC(=N)N)C(=O)N[C@@H](CCCCN)C(=O)N[C@@H](CC(C)C)C(=O)N[C@@H](CCCNC(=N)N)C(=O)N[C@@H](CCCCN)C(=O)N[C@@H](CCCNC(=N)N)C(=O)N[C@@H](CC(C)C)C(=O)N[C@@H](CC(C)C)C(N)=O)C(C)C (some centres unmarked) [COG493, WKK-C-LRVRLASHLRKLRKRLL (SEQ ID NO: 90) <BMOE> WKK-C-LRVRLASHLRKLRKRLL (SEQ ID NO: 90)]
cytotoxicity to MDA-MB-231 cells, dimer versus monomer COG435 [4]: significantly more cytotoxic
MTD at 24 h [2]: 20 mg/kg
cytotoxicity to U87MG cells (U87MG glioblastoma cells): cytotoxic

CC(=O)N[C@@H](CC(C)C)C(=O)N[C@@H](CCCNC(=N)N)C(=O)N[C@H](C(=O)N[C@@H](CCCNC(=N)N)C(=O)N[C@@H](CC(C)C)C(=O)N[C@@H](C)C(=O)N[C@@H](CO)C(=O)NC(C)(C)C(=O)N[C@@H](CC(C)C)C(=O)N[C@@H](CCCCN)C(=O)N[C@@H](CCCNC(=N)N)C(=O)N[C@@H](CC(C)C)C(=O)N[C@@H](CCCNC(=N)N)C(=O)N[C@@H](CCCCN)C(=O)N[C@@H](CCCNC(=N)N[N+](=O)[O-])C(=O)N[C@@H](CC(C)C)C(=O)N[C@@H](CC(C)C)C(N)=O)C(C)C [COG248, LRVRLAS(Aib)LKRLRK(nitroR)LL (SEQ ID NO: 4)] (Ac-LRVRLAS[Aib]LKRLRK[Arg(NO2)]LL-NH2)
anti-inflammatory activity relative to COG133 in NO release assays (BV2 microglia cells [5]): improved anti-inflammatory activity
EC50 (BV2 microglia cells [3]): 900 nM
Fold Change (B-CLL cells): 5.5
EC50 (B-CLL cells; [6]): 2300 nM

LRVRLAS(Aib)LRKLR(K-Ac)RLL (SEQ ID NO: 35) (LRVRLAS[Aib]LRKLRK(Ac)RLL) [COG345]
anti-inflammatory activity relative to COG133 in NO release assays (BV2 microglia cells [5]): improved anti-inflammatory activity
